According to patent US12522583B2, “Benzimidazole derivatives and aza-benzimidazole derivatives as Janus kinase 2 inhibitors and uses thereof” (Dana-Farber Cancer Institute, Inc., priority 2018, dated 2026):

Key:
Test in all cases: KINOMEscan
Type in all cases: binding
Conditions in all cases: read-out: percent control
KIT(D816H) = KIT(D816H) (Homo sapiens (Human), UniProt P10721, D816H)
Description: (§1) Example 2. In Vitro Kinase Selectivity Profiling of the Compounds of the Present Disclosure

YSK1 = YSK1 (Homo sapiens (Human), UniProt O00506)
Description: as §1

WNK4 = WNK4 (Homo sapiens (Human), UniProt Q96J92)
Description: as §1

AURKB = AURKB (Homo sapiens (Human), UniProt Q96GD4)
Description: as §1

CTK = CTK (Homo sapiens (Human), UniProt P42679)
Description: as §1

BRSK1 = BRSK1 (Homo sapiens (Human), UniProt Q8TDC3)
Description: as §1

AKT3 = AKT3 (Homo sapiens (Human), UniProt Q9Y243)
Description: as §1

TTK = TTK (Homo sapiens (Human), UniProt P33981)
Description: as §1

FYN = FYN (Homo sapiens (Human), UniProt P06241)
Description: as §1

p38-alpha = p38-alpha (Homo sapiens (Human), UniProt Q16539)
Description: as §1

LTK = LTK (Homo sapiens (Human), UniProt P29376)
Description: as §1

S6K1 = S6K1 (Homo sapiens (Human), UniProt P23443)
Description: as §1

DYRK2 = DYRK2 (Homo sapiens (Human), UniProt Q92630)
Description: as §1

GRK3 = GRK3 (Homo sapiens (Human), UniProt P35626)
Description: as §1

PIM1 = PIM1 (Homo sapiens (Human), UniProt P11309)
Description: as §1

[1] = target: ABL1(F317I)-nonphosphorylated (Homo sapiens (Human), UniProt P00519, F317I)
Description: as §1

NDR1 = NDR1 (Homo sapiens (Human), UniProt Q15208)
Description: as §1

PLK2 = PLK2 (Homo sapiens (Human), UniProt Q9NYY3)
Description: as §1

NEK1 = NEK1 (Homo sapiens (Human), UniProt Q96PY6)
Description: as §1

EPHA3 = EPHA3 (Homo sapiens (Human), UniProt P29320)
Description: as §1

EGFR = EGFR (Homo sapiens (Human), UniProt P00533)
Description: as §1

TNNI3K = TNNI3K (Homo sapiens (Human), UniProt Q59H18)
Description: as §1

MAP3K2 = MAP3K2 (Homo sapiens (Human), UniProt Q9Y2U5)
Description: as §1

DRAK1 = DRAK1 (Homo sapiens (Human), UniProt Q9UEE5)
Description: as §1

FLT3(D835H) = FLT3(D835H) (Homo sapiens (Human), UniProt P36888, D835H)
Description: as §1

SRC = SRC (Homo sapiens (Human), UniProt P12931)
Description: as §1

PIK3CA(M1043I) = PIK3CA(M1043I) (Homo sapiens (Human), UniProt P42336, M1043I)
Description: as §1

[2] = target: JAK2(JH1domain-catalytic) (Homo sapiens (Human), UniProt O60674)
Description: as §1

PIM3 = PIM3 (Homo sapiens (Human), UniProt Q86V86)
Description: as §1

MAP4K4 = MAP4K4 (Homo sapiens (Human), UniProt O95819)
Description: as §1

SIK2 = SIK2 (Homo sapiens (Human), UniProt Q9H0K1)
Description: as §1

PKN2 = PKN2 (Homo sapiens (Human), UniProt Q16513)
Description: as §1

NEK11 = NEK11 (Homo sapiens (Human), UniProt Q8NG66)
Description: as §1

TNIK = TNIK (Homo sapiens (Human), UniProt Q9UKE5)
Description: as §1

ULK3 = ULK3 (Homo sapiens (Human), UniProt Q6PHR2)
Description: as §1

MAP3K1 = MAP3K1 (Homo sapiens (Human), UniProt Q13233)
Description: as §1

SYK = SYK (Homo sapiens (Human), UniProt P43405)
Description: as §1

TRKA = TRKA (Homo sapiens (Human), UniProt P04629)
Description: as §1

PLK1 = PLK1 (Homo sapiens (Human), UniProt P53350)
Description: as §1

SGK2 = SGK2 (Homo sapiens (Human), UniProt Q9HBY8)
Description: as §1

ALK(C1156Y) = ALK(C1156Y) (Homo sapiens (Human), UniProt Q9UM73, C1156Y)
Description: as §1

Sequence of SIK2 (Q9H0K1 whole entry): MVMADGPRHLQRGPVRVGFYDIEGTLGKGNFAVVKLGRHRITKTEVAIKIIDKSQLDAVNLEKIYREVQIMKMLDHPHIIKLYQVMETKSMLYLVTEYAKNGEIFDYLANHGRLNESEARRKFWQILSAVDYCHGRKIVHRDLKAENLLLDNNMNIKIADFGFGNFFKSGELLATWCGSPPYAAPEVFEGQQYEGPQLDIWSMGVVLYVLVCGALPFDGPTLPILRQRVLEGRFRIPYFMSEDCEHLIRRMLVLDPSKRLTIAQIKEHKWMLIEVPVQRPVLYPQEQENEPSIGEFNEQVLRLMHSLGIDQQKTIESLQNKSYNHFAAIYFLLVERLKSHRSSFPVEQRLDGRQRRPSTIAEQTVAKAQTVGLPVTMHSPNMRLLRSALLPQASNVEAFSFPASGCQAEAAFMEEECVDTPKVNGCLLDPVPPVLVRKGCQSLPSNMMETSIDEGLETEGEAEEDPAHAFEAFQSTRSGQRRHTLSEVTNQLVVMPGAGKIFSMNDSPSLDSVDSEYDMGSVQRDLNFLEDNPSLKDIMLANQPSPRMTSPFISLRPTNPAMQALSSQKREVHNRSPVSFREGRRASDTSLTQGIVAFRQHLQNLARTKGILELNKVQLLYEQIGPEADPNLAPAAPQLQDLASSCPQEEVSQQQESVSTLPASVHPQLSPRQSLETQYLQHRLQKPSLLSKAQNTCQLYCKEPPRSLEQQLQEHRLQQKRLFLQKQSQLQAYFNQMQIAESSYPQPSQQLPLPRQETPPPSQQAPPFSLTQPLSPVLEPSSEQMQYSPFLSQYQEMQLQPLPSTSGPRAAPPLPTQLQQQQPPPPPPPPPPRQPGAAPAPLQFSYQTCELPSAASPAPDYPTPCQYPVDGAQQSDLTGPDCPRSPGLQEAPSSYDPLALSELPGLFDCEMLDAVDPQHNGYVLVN
Sequence of NEK1 (Q96PY6 whole entry): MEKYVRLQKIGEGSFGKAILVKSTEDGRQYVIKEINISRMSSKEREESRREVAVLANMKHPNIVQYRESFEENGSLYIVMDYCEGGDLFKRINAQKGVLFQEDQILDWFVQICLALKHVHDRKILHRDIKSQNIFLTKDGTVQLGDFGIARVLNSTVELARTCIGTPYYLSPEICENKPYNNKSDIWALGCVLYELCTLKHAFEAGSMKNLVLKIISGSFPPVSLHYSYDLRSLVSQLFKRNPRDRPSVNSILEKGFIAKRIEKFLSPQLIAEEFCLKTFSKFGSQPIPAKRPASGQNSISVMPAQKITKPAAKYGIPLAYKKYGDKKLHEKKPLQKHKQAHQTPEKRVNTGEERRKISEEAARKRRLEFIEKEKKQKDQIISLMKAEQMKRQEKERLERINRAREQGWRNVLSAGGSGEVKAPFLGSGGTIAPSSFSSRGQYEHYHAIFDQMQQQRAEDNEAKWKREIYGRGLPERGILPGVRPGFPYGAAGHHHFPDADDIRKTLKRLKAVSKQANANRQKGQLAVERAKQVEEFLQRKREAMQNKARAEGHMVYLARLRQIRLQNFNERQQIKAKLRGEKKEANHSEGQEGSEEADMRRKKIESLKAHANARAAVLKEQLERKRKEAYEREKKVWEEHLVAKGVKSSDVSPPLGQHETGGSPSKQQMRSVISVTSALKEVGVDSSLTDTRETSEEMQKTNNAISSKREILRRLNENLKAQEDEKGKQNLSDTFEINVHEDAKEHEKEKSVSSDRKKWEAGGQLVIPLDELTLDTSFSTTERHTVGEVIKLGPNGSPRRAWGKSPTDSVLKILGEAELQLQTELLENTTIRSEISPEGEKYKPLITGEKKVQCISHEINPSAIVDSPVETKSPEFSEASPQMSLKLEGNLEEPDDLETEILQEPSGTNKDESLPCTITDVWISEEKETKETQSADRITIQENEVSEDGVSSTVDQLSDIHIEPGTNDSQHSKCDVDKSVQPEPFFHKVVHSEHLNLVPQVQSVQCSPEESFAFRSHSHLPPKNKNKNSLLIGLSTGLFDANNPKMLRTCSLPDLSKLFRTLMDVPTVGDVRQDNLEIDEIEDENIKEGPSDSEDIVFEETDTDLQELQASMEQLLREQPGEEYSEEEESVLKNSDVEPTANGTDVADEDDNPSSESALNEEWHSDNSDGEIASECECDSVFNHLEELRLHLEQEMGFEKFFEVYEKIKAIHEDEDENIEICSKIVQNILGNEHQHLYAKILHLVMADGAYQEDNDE
Sequence of PIM1 (P11309 whole entry): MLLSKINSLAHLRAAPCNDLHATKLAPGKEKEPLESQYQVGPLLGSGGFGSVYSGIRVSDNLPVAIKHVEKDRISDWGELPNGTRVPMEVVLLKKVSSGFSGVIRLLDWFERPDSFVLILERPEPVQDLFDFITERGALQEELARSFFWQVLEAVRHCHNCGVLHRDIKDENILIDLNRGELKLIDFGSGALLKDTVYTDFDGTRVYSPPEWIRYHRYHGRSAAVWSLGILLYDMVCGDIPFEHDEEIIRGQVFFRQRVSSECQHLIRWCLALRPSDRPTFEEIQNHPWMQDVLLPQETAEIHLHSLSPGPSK
Sequence of SRC (P12931 whole entry, looked up): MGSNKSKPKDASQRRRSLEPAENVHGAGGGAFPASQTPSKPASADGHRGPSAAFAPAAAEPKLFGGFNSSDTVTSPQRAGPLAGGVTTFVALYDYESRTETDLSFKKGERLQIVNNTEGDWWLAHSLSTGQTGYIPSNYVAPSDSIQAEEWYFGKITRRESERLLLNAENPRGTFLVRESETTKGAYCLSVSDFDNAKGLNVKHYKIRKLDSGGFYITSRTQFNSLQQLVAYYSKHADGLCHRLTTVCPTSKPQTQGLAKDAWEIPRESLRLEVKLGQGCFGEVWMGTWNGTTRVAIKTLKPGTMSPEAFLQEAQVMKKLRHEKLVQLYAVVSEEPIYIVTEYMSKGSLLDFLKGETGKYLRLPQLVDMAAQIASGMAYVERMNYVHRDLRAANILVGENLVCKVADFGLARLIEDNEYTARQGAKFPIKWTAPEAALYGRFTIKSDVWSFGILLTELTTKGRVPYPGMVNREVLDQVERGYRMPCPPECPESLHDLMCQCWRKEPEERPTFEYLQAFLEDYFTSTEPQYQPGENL
Sequence of ABL1(F317I)-nonphosphorylated (P00519 whole entry F317I): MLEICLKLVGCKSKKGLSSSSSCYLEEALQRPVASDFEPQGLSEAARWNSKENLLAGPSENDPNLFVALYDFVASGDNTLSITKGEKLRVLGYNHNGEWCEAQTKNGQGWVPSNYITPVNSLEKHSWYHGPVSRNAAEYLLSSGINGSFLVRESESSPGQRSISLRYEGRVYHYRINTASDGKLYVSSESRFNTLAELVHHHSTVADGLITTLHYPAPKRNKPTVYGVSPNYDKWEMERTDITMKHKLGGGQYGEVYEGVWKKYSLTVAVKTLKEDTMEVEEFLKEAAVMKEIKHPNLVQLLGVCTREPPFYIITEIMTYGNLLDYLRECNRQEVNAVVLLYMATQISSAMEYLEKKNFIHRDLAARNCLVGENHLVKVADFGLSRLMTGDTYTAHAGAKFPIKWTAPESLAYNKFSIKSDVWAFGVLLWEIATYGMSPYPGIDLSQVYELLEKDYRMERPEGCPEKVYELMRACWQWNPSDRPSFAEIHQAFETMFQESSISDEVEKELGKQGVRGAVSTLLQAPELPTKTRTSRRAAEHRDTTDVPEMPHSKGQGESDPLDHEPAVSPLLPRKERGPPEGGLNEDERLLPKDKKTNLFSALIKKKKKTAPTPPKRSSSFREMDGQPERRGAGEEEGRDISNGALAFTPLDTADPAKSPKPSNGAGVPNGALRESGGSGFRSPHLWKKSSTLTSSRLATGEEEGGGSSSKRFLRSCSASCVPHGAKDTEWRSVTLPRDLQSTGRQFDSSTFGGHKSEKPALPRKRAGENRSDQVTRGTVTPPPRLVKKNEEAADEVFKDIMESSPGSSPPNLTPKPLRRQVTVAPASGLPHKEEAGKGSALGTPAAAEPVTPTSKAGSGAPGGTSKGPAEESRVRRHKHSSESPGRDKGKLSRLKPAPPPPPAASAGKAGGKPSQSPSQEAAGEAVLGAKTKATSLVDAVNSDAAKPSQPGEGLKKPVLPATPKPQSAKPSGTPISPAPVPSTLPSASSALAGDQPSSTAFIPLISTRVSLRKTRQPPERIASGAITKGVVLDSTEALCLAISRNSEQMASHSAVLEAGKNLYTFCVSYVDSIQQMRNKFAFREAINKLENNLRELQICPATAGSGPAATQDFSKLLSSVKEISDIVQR
Sequence of p38-alpha (Q16539 whole entry): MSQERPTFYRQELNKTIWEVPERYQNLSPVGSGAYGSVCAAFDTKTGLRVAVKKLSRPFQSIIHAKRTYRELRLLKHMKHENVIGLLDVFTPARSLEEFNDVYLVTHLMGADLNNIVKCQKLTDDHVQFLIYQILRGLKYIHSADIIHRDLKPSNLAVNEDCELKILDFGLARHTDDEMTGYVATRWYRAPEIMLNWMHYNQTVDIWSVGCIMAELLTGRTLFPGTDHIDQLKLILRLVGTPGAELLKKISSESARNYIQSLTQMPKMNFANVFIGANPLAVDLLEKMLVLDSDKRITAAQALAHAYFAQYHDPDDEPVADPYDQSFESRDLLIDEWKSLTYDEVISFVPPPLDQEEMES
Sequence of S6K1 (P23443 whole entry): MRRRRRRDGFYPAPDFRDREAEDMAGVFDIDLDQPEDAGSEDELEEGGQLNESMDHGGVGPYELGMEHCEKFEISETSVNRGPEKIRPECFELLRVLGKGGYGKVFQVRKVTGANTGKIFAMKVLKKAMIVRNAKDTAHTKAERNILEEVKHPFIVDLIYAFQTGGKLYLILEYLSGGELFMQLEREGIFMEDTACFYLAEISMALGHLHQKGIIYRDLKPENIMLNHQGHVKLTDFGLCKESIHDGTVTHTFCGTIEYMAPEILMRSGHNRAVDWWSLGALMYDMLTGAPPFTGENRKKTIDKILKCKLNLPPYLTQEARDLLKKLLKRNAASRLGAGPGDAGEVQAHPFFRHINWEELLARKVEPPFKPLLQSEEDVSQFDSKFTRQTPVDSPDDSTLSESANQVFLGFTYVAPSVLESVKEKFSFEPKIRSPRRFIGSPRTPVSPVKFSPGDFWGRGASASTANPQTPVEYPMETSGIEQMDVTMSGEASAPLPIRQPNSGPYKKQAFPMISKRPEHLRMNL

## CCN1CCN(Cc2ccc(Nc3nc4ccc(Oc5ccnc(NC(C)=O)c5)cc4n3C)cc2C(F)(F)F)CC1 [Compound I-2]
KIT(D816H)
  remaining binding at 1 µM: 22%
YSK1
  remaining binding at 1 µM: 94%
WNK4
  remaining binding at 1 µM: 93%
AURKB
  remaining binding at 1 µM: 49%
CTK
  remaining binding at 1 µM: 83%
BRSK1
  remaining binding at 1 µM: 100%
AKT3
  remaining binding at 1 µM: 99%
TTK
  remaining binding at 1 µM: 75%
FYN
  remaining binding at 1 µM: 80%
p38-alpha
  remaining binding at 1 µM: 92%
LTK
  remaining binding at 1 µM: 61%
S6K1
  remaining binding at 1 µM: 82%
DYRK2
  remaining binding at 1 µM: 83%
GRK3
  remaining binding at 1 µM: 100%
PIM1
  remaining binding at 1 µM: 100%
[1]
  remaining binding at 1 µM: 37%
NDR1
  remaining binding at 1 µM: 90%
PLK2
  remaining binding at 1 µM: 94%
NEK1
  remaining binding at 1 µM: 84%
EPHA3
  remaining binding at 1 µM: 52%
EGFR
  remaining binding at 1 µM: 79%
TNNI3K
  remaining binding at 1 µM: 23%
MAP3K2
  remaining binding at 1 µM: 21%
DRAK1
  remaining binding at 1 µM: 100%
FLT3(D835H)
  remaining binding at 1 µM: 47%
SRC
  remaining binding at 1 µM: 61%
PIK3CA(M1043I)
  remaining binding at 1 µM: 78%
[2]
  remaining binding at 1 µM: 16%
PIM3
  remaining binding at 1 µM: 93%
MAP4K4
  remaining binding at 1 µM: 100%
SIK2
  remaining binding at 1 µM: 100%
PKN2
  remaining binding at 1 µM: 100%
NEK11
  remaining binding at 1 µM: 100%
TNIK
  remaining binding at 1 µM: 53%
ULK3
  remaining binding at 1 µM: 92%
MAP3K1
  remaining binding at 1 µM: 77%
SYK
  remaining binding at 1 µM: 85%
TRKA
  remaining binding at 1 µM: 31%
PLK1
  remaining binding at 1 µM: 100%
SGK2
  remaining binding at 1 µM: 89%
ALK(C1156Y)
  remaining binding at 1 µM: 96%

## CCN1CCN(Cc2ccc(Nc3nc4ccc(Oc5ccnc(NC(C)=O)c5)c(C)c4n3C)cc2C(F)(F)F)CC1 [Compound I-6, N-(4-(2-(4-((4-ethylpiperazin-1-yl)methyl)-3-(trifluoromethyl)phenylamino)-1,7-dimethyl-1H-benzo[d]imidazol-6-yloxy)pyridin-2-yl)acetamide]
KIT(D816H)
  remaining binding at 1 µM: 44%
YSK1
  remaining binding at 1 µM: 65%
WNK4
  remaining binding at 1 µM: 82%
AURKB
  remaining binding at 1 µM: 81%
CTK
  remaining binding at 1 µM: 90%
BRSK1
  remaining binding at 1 µM: 100%
AKT3
  remaining binding at 1 µM: 100%
TTK
  remaining binding at 1 µM: 96%
FYN
  remaining binding at 1 µM: 49%
p38-alpha
  remaining binding at 1 µM: 44%
LTK
  remaining binding at 1 µM: 22%
S6K1
  remaining binding at 1 µM: 84%
DYRK2
  remaining binding at 1 µM: 97%
GRK3
  remaining binding at 1 µM: 79%
PIM1
  remaining binding at 1 µM: 98%
[1]
  remaining binding at 1 µM: 7.4%
NDR1
  remaining binding at 1 µM: 100%
PLK2
  remaining binding at 1 µM: 71%
NEK1
  remaining binding at 1 µM: 79%
EPHA3
  remaining binding at 1 µM: 68%
EGFR
  remaining binding at 1 µM: 100%
TNNI3K
  remaining binding at 1 µM: 51%
MAP3K2
  remaining binding at 1 µM: 0.6%
DRAK1
  remaining binding at 1 µM: 99%
FLT3(D835H)
  remaining binding at 1 µM: 24%
SRC
  remaining binding at 1 µM: 32%
PIK3CA(M1043I)
  remaining binding at 1 µM: 100%
[2]
  remaining binding at 1 µM: 29%
PIM3
  remaining binding at 1 µM: 86%
MAP4K4
  remaining binding at 1 µM: 93%
SIK2
  remaining binding at 1 µM: 97%
PKN2
  remaining binding at 1 µM: 93%
NEK11
  remaining binding at 1 µM: 61%
TNIK
  remaining binding at 1 µM: 75%
ULK3
  remaining binding at 1 µM: 79%
MAP3K1
  remaining binding at 1 µM: 86%
SYK
  remaining binding at 1 µM: 92%
TRKA
  remaining binding at 1 µM: 3.5%
PLK1
  remaining binding at 1 µM: 71%
SGK2
  remaining binding at 1 µM: 85%
ALK(C1156Y)
  remaining binding at 1 µM: 92%
